According to US20240277798A1, “CYCLOSPORINE COMPOSITIONS AND METHODS OF USE” (Bacainn Biotherapeutics, Ltd., priority 2021, published 2024):

Key:
[1] = tested on: human neutrophils; experiment: PMN transmigration assay (Salmonella typhimurium-infected T84 monolayer, HXA3/MRP2-driven neutrophil migration, MPO readout); assay type: cell-based
Procedure: PMN transmigration assay. T84 colorectal cancer cells were grown to confluence on the bottom side of 12 well polycarbonate membrane inserts of a 24 well Transwell® plate. The confluent growth of these epithelial cells results in physiologically-relevant apical (luminal) and basolateral surfaces in the transwells. […] The monolayer was then infected on the apical surface with Salmonella typhimurium for 2 hours to induce hepoxilin A3 (HXA3) efflux through the MRP2 membrane protein and into the apical chamber. […] Freshly isolated and prepared human neutrophils were then added to the basolateral side and allowed to transmigrate through the monolayer for 2 hours. The number of neutrophils migrated to the apical chamber (due to the HXA3 gradient) was then assayed by determination of myeloperoxidase activity (a neutrophil biomarker). Inhibition of transmigration is indicated by lower MPO activity in the apical chamber.

[2] = SGF FeSSIF stability; assay type: in vitro ADME; details: 10 μM, 37° C., 6 hours, predicted
Procedure: SGF FeSSIF Stability Procedure. BT090 (10 μM) was incubated in duplicate at 37° C. for a total of 6 hours in simulated gastric fluid (SGF) (Ricca, Arlington, TX) and Fed State Simulated Intestinal Fluid (FeSSIF) (Biorelevant, London, UK). The reactions were initiated by spiking the test articles (1 mM water stock solutions) in their respective buffers. At selected time points (0, 0.5, 1, 2, 4, and 6 hours), a 50 μL aliquot was taken from the incubation mixtures and frozen at −80° C. At the end of the incubation period, 200 μL of 50:50 acetonitrile:water containing the internal standards (IS) were added to every tube and vortexed thoroughly. The 0 hour samples were prepared in pre-quenched SGF or FeSSIF. All quenched samples were then submitted to bioanalysis for LC-MS/MS quantification.
(§1) Bioanalysis. BT090 samples were analyzed by LC-MS/MS using a Thermo Accela UPLC and a Thermo Q-Exactive mass spectrometer. The [M+H]+ adducts of the compounds and internal standards were monitored using positive mode electrospray ionization in exact mass mode. […]
SGF FeSSIF Stability Procedure. […] All quenched samples are then submitted to bioanalysis for LC-MS/MS quantification.
(§2) Bioanalysis. […] The [M+H]+ adducts of the compounds and internal standards are monitored using positive mode electrospray ionization in exact mass mode. […]

[3] = Feces stability (rat feces homogenate); assay type: in vitro ADME, Sprague-Dawley rat; details: 10 μM, 37° C., 24 hours, predicted
Procedure: Feces stability. Immediately prior to the study, male Sprague-Dawley rat feces were collected overnight over a mix of dry and wet ice. Feces were then homogenized in phosphate buffer at pH 6.5 and filtered to remove particles. BT090 ([…]) was incubated in duplicate at 37° C. for a total of 24 hours in the freshly prepared rat feces homogenate. At selected time points (0.5, 2, 6 and 24 hours), a 25 μL aliquot was taken from the incubation mixtures and quenched with 225 μL of acetonitrile containing the internal standards (IS). Samples were then centrifuged to pellet the precipitated proteins and the supernatants were diluted 5-fold. The 0 hour samples were prepared in pre-quenched feces homogenate towards the end of the incubation period. All quenched samples were then submitted to bioanalysis for LC-MS/MS quantification.
as §1
Feces stability. […] All quenched samples are then submitted to bioanalysis for LC-MS/MS quantification.
as §2

- stability in simulated gastric fluid (SGF) [2]: stable
- stability in simulated intestinal fluid (FeSSIF) [2]: stable
- stability in fresh rat fecal homogenate [3]: stable
SMILES: CC[C@@H]1NC(=O)[C@H]([C@H](O)[C@H](C)CCCCCC(=O)O)N(C)C(=O)[C@H](C(C)C)N(C)C(=O)[C@H](CC(C)C)N(C)C(=O)[C@H](CC(C)C)N(C)C(=O)[C@@H](C)NC(=O)[C@H](C)NC(=O)[C@H](CC(C)C)N(C)C(=O)[C@H](C(C)C)NC(=O)[C@H](CC(C)C)N(C)C(=O)CN(C)C1=O [BT070]
- dose-response of inhibition of neutrophil migration ([1]; FIG. 1, result in words): dose-responsive inhibition
- inhibition of neutrophil migration ([1]; dose of 100 nM, result in words): exhibit inhibition
